Target: Protein farnesyltransferase (Homo sapiens, UniProt P49354+P49356)
Assay: Inhibition of ras Farnesyltransferase
Assay type: protein-complex assay

Structure (SMILES)	IC50
CC(C)=CCC/C(C)=C/CC/C(C)=C/CCCCC(=O)N[C@H](C(=O)N[C@@H](CC(C)C)C(=O)N[C@@H](CO)C(=O)O)C(C)C	> 360 µM
CC(C)=CCC/C(C)=C/CC/C(C)=C/CN[C@H](CCC(=O)N[C@H](C(=O)N[C@@H](CC(C)C)C(=O)N[C@@H](CO)C(=O)O)C(C)C)C(=O)O	14 µM
CC(C)=CCC/C(C)=C/CC/C(C)=C/CC(CC(=O)N[C@H](C(=O)N[C@@H](CC(C)C)C(=O)N[C@@H](CO)C(=O)O)C(C)C)C(=O)O (some centres undefined)	4.5 µM
CC(C)=CCC/C(C)=C/CC/C(C)=C/CNC(=O)C(CCC(=O)N[C@H](C(=O)N[C@@H](CC(C)C)C(=O)N[C@@H](CO)C(=O)O)C(C)C)C(=O)O (some centres undefined)	4.4 µM
CC(C)=CCC/C(C)=C/CC/C(C)=C/CC(C[C@H](NC(=O)OC(C)(C)C)C(=O)N[C@H](C(=O)N[C@@H](CC(C)C)C(=O)N[C@@H](CO)C(=O)O)C(C)C)C(=O)O (some centres undefined)	20 µM
CCCCCCCCCCCCC(CCC(=O)N[C@H](C(=O)N[C@@H](CC(C)C)C(=O)N[C@@H](CO)C(=O)O)C(C)C)C(=O)O (some centres undefined)	10 µM
CC(C)=CCC/C(C)=C/CC/C(C)=C/CN[C@@H](CCC(=O)N[C@H](C(=O)N[C@@H](CC(C)C)C(=O)N[C@@H](CO)C(=O)O)C(C)C)C(=O)O	3.4 µM
CCOC(=O)C(C/C=C(\C)CC/C=C(\C)CCC=C(C)C)CCC(=O)N[C@H](C(=O)N[C@@H](CC(C)C)C(=O)N[C@@H](CO)C(=O)O)C(C)C (some centres undefined)	> 360 µM

Next, values leading:

IC50	Structure (SMILES)
0.15 µM	CC(C)=CCC/C(C)=C/CC/C(C)=C/CC(CCC(=O)N[C@H](C(=O)N[C@@H](CC(C)C)C(=O)N[C@@H](CO)C(=O)O)C(C)C)C(=O)NCP(=O)(O)O (some centres undefined)
0.033 µM	CC(C)=CCC/C(C)=C/CC/C(C)=C/C(=O)N[C@@H](CCC(=O)N[C@H](C(=O)N[C@@H](CC(C)C)C(=O)N[C@@H](CO)C(=O)O)C(C)C)C(=O)O (stereo in doubt; 28 (L))
1.8 µM	CC(C)=CCC/C(C)=C/CC/C(C)=C/CC(CCCCC(=O)N[C@H](C(=O)N[C@@H](CC(C)C)C(=O)N[C@@H](CO)C(=O)O)C(C)C)C(=O)O (some centres undefined)
3.4 µM	CC(C)=CCC/C(C)=C/CC/C(C)=C/C(=O)N[C@@H](CCC(=O)N[C@H](C(=O)N[C@@H](CC(C)C)C(=O)N[C@@H](CO)C(=O)O)C(C)C)C(=O)O (stereo in doubt; 29 (D))
1.2 µM	CC(C)=CCC/C(C)=C/CC/C(C)=C/CC(CCCC(=O)N[C@H](C(=O)N[C@@H](CC(C)C)C(=O)N[C@@H](CO)C(=O)O)C(C)C)C(=O)O (some centres undefined)
0.9 µM	CC(C)=CCC/C(C)=C/CC/C(C)=C/CC(CCC(=O)N[C@H](C(=O)N[C@@H](CC(C)C)C(=O)N[C@@H](CO)C(=O)O)C(C)C)C(=O)O (some centres undefined)

Source: ChEMBL document CHEMBL1152035, “Rational design of potent carboxylic acid based bisubstrate inhibitors of ras farnesyl protein transferase” (Bioorg Med Chem Lett, 1994)
